Reference: patent US20070219214A1, “Dual NK2/NK3-antagonists, pharmaceutical compositions comprising them, and processes for their preparation” (Solvay pharmaceuticals GmbH, priority 2006, published 2007)

Columns and labels:
human NK2-receptor [1] = molecular target: T1, human NK2-receptor (Homo sapiens, UniProt P21452); assay: Functional cellular test, Ca2+ measurements using FLIPR for NK2 activity; conditions: for pA2 data for NK2: CHO cells, human NK2, FLIPR Ca2+, agonist NKA 10^-7 M;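 as to all read-outs here: CHO cells stably expressing the human receptor, loaded with a calcium dye, antagonist inhibition of ligand-evoked intracellular calcium rise read as peak fluorescence change on FLIPR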
T1 sequence (P21452 1-398): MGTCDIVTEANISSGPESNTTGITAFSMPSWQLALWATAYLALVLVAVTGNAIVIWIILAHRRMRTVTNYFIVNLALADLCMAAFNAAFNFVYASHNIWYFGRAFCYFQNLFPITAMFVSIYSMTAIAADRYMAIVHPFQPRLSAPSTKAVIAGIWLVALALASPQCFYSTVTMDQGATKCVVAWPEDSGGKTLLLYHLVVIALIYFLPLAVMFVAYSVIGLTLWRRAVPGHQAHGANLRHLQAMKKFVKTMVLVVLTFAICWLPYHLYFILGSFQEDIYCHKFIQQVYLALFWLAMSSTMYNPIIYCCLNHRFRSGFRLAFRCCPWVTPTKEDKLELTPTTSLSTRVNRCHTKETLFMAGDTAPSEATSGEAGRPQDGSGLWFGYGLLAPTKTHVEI

human NK2-receptor [2] = molecular target: T1, human NK2-receptor; assay: Binding potency of the test substances to NK2-receptors in vitro ([3H]-SR 48968 displacement); design: expressed in transfected cells; host or cells: CHO cells (membrane preparation); conditions: human NK2-receptor in CHO cell membranes, [3H]-SR 48968 (saredutant), average of at least three measurements
Method in brief: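 Membranes from CHO cells stably expressing the receptor were incubated with [3H]-saredutant plus test compound, then filtered and counted by liquid scintillation. Nonspecific binding defined with 0.1 μmol/l unlabeled saredutant. IC50 from displacement converted to Ki via Cheng-Prusoff and reported as pKi, averaged over measurements.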

NK3-receptor = molecular target: T2, NK3-receptor (Cavia porcellus, UniProt P30098); assay: NK-3-receptor-antagonistic effectiveness in vivo, senktide-induced hypertension in guinea pigs; conditions: guinea pig, iv; read-out: ID50 (iv), inhibition of blood pressure
T2 construct: from tissue; host or cells: whole animal (Dunkin Hartley guinea pigs), in vivo
T2 sequence (P30098 1-440): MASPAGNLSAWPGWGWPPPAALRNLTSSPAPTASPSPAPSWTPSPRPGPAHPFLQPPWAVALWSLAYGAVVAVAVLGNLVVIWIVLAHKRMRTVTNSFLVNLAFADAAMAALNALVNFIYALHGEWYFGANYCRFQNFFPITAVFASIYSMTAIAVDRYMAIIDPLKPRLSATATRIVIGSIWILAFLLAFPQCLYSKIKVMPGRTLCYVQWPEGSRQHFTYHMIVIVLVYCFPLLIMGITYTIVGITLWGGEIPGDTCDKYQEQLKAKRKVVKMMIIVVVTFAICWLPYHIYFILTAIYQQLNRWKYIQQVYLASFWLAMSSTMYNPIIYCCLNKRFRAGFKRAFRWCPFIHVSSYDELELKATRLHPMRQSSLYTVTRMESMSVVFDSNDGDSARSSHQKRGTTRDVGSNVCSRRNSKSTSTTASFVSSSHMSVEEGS
Protocol: 9. Determination of the NK-3-Receptor-Antagonistic Effectiveness of the Test Substances In Vivo (Reduction of Blood Pressure in Guinea-Pigs with Senktide-Induced Hypertension)
NK3 agonists increase the blood pressure in guinea pigs. The senktide-induced hypertension can be antagonized by administering compounds with NK3-antagonistic properties. Measuring the level of hypertension is indicative of the degree of activity of the test compounds. The effect of the tested compound is assessed in the same experiment to exclude an additional hypertensional effect.
Male Dunkin Hartley guinea pigs with a body weight between 450 and 550 g were anesthetized with Ketamin (200 mg/kg i.m.; Aescoket 10%) and the left carotid artery and left jugular vein were cannulated for blood pressure measurement and drug application, respectively. The animals were allowed to breathe spontaneously. Blood pressure was measured with a strain gauge transducer connected to a computer via an amplifier.
For oral administration, vehicle (1% methylcellulose) or test compound was administered in a dose volume of 5 ml/kg. Forty five minutes thereafter, anesthesia was induced and the carotid artery and jugular vein were cannulated.
For intravenous administration, the test compounds were dissolved in 40% hydroxypropyl-β-cyclodextrine (HPCD) containing 10% DMSO, diluted with saline and administered intravenously in cumulative dose ranges. A vehicle group of animals received the corresponding HPCD/DMSO solutions instead of the test compound. For oral administration, the test compound was suspended in 1% methylcellulose. A vehicle group of animals received the corresponding […] of the test compound.

human NK3 receptor [3] = molecular target: T3, human NK3 receptor (Homo sapiens, UniProt P29371); assay: Functional cellular test, Ca2+ measurements using aequorin for NK3 activity; assay type: cell-based; design: expressed in transfected cells; host or cells: cell line co-expressing mitochondrially targeted apoaequorin (CHO according to b76/b77); conditions: for pA2 data for NK3: cell line with human NK3 receptor and apoaequorin, agonist senktide 5x10-8 M
T3 sequence (P29371 1-465): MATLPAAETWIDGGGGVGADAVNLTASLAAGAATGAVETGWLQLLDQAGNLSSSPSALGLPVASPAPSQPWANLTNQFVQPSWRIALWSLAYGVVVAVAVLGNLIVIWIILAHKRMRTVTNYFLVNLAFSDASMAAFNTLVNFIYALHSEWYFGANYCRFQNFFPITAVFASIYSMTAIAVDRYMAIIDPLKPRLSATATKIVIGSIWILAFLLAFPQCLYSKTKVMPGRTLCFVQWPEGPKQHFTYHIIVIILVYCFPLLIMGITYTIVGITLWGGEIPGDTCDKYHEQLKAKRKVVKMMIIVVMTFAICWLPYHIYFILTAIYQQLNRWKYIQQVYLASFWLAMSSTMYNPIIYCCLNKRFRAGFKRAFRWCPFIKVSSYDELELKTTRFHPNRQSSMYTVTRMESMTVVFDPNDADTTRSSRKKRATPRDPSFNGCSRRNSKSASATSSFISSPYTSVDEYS

NK2-receptor = molecular target: T4, NK2-receptor (Cavia porcellus, UniProt Q64077); assay: NK2-receptor-antagonistic effectiveness in vivo, NKA-induced late hypotension, bronchoconstriction and colonic pressure in anaesthetised guinea pigs; conditions: guinea pig; for ED50 iv after 1 min (cumulative), NK2 (bronchoconstriction) / ED50 iv after 1 min (cumulative), NK2 (colonic motility) / ED50 iv after 1 min (cumulative), NK2 (late hypotension): intravenous administration
T4 construct: from tissue; host or cells: whole animal (Pirbright-White guinea pigs), in vivo
T4 sequence (Q64077 1-402): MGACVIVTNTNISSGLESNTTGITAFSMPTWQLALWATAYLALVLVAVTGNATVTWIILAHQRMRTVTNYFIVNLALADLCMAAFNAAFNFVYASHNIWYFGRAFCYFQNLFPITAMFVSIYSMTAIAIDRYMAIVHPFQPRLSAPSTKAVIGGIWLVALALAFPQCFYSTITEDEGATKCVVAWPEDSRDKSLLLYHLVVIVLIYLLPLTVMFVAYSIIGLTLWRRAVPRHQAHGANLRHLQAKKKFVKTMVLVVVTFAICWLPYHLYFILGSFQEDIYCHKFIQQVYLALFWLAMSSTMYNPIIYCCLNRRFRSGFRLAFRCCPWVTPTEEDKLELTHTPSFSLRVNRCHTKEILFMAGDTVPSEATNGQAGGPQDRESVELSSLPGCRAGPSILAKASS
Description: (§1) 10. Determination of the NK1- and NK2-Receptor-Antagonistic Effectiveness of the Test Substances In Vivo
(§2) The NK1- and NK2-antagonistic activities of the test substances were investigated in anaesthetised guinea pigs in each case after intravenous (=i.v.) and oral (=p.o.) administration in vivo. With the present test model it is possible to detect both NK2-antagonistic effects in three different organ systems (respiratory tracts, colon and circulation) and NK1-antagonistic effects (rapid drop in blood pressure) in an animal simultaneously.
(§3) Pirbright-White guinea pigs of a body weight of 500-700 g were anaesthetised with ketamine/xylazine (67/13 mg/kg subcutaneously, initial dose, further doses administered as required). The animals were provided with an intravenous catheter in order to administer the substance and an intra-arterial catheter to measure the blood pressure. The animals were artificially ventilated via a tracheal cannula and the respiratory pressure was recorded by means of a pressure transducer. A balloon was introduced into the distal colon of the animals for manometric recording of colon motility by means of a pressure transducer. Blood pressure, heart rate, respiratory pressure and colonic pressure were measured continuously for each animal and plotted on a recorder and by means of a digital data-processing system. […] The second phase of delayed hypotension (=phase of maximum hypotension after 2-5 min.) on the other hand is mediated via NK2-receptors, since they can be blocked by specific NK2-receptor antagonists.
(§4) These ED50 values obtained from cumulative dose effect curves are plotted in Table 13.

human NK1-receptor [4] = molecular target: T5, human NK1-receptor (Homo sapiens, UniProt P25103); assay: Functional cellular test, Ca2+ measurements using FLIPR for NK1 activity; assay type: cell-based; design: expressed in transfected cells; host or cells: CHO fibroblast cells; conditions: CHO cells, human NK1, FLIPR Ca2+, agonist substance P 10^-8 M
T5 sequence (P25103 whole entry): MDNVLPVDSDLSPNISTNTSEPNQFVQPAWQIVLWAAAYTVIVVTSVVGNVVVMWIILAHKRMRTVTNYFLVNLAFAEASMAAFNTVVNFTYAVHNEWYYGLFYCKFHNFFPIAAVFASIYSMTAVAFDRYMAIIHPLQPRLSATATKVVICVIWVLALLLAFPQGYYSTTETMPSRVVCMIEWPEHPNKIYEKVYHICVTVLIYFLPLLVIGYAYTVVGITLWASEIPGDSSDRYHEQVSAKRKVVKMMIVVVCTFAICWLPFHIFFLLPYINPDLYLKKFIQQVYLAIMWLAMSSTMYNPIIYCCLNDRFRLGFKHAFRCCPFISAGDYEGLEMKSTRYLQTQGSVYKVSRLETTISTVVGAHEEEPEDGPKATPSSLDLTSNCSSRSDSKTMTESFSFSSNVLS
Description: The NK receptor is coupled to Gq.
All steps were done under sterile conditions.

NK1-receptor = molecular target: T6, NK1-receptor (Cavia porcellus, UniProt P30547); assay: NK1-receptor-antagonistic effectiveness in vivo, NKA-induced early hypotension in anaesthetised guinea pigs; conditions: guinea pig, NKA 200 pmol/animal i.v.; for ED50 iv after 1 min (cumulative), NK1 (early hypotension): intravenous administration
T6 construct: from tissue; host or cells: whole animal (Pirbright-White guinea pigs), in vivo
T6 sequence (P30547 whole entry): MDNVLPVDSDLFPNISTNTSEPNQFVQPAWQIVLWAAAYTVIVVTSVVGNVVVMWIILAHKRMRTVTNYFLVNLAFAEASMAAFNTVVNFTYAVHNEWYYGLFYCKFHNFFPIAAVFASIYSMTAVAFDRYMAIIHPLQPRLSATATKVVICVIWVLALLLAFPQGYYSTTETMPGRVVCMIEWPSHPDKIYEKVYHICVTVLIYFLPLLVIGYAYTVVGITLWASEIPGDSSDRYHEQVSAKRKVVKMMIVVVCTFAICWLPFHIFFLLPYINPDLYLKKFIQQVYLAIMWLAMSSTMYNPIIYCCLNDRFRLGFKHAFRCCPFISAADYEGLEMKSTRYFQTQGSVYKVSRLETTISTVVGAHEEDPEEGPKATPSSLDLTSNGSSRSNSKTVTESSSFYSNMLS
Description: as §1, §2, §3, §4

human NK1-receptor [5] = molecular target: T5, human NK1-receptor; assay: Binding potency of the test substances to NK1-receptors in vitro ([3H]-Substance P displacement); conditions: human NK1-receptor in CHO cell membranes, average of at least three measurements
Protocol: 1. Determination of the Binding Potency of the Test Substances to NK1-Receptors in Vitro
The affinity of test compounds for NK1-receptors can be determined by measuring the ability of the test compound to displace a radiolabeled ligand from its specific binding site. The tests were performed at Solvay Pharmaceuticals, Weesp, The Netherlands.
Separation of bound radioactivity from free radioactivity was done by filtration through glass fiber filters (Packard GF/B) with several washings with ice-cold buffer solution. Bound radioactivity was measured with a liquid scintillation counter (total binding).
The inhibition constant (Ki) was calculated according to the Cheng-Prusoff equation, and listed as its negative logarithmic value (pKi). The pKi value describes the potency of a test compound to bind to a receptor.

human NK3 receptor [6] = molecular target: T3, human NK3 receptor; assay: Binding potency of the test substances to NK3-receptors in vitro ([3H]-SR 142801 displacement); design: expressed in transfected cells; host or cells: CHO cells (membrane preparation); conditions: human NK3-receptor in CHO cell membranes, [3H]-SR 142801 (osanetant); average of at least three measurements
Method in brief: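 [3H]-osanetant displacement on membranes from CHO cells stably expressing the human receptor, with bound ligand separated by filtration and counted by scintillation. Nonspecific binding defined with 1 μmol/l unlabeled osanetant. IC50 converted to Ki by Cheng-Prusoff and reported as pKi, averaged over measurements.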

[7] = NKA 200 pmol/animal i.v., oral administration

| Kb (human NK2-receptor [1]) | Ki (human NK2-receptor [2]; read-out: pKi, binding potency to NK2-receptors (converted)) | Kb (human NK3 receptor [3]; read-out: pA2 data for NK3 (converted)) | pA2 data for NK2 (human NK2-receptor [1]) | ED50 iv after 1 min (cumulative), NK2 (bronchoconstriction) (NK2-receptor; NKA 200 pmol/animal i.v.) | ED50 iv after 1 min (cumulative), NK2 (colonic motility) (NK2-receptor; NKA 200 pmol/animal i.v.) | ED50 iv after 1 min (cumulative), NK2 (late hypotension) (NK2-receptor; NKA 200 pmol/animal i.v.) | ED50 AUC1-180 min oral, NK2 (bronchoconstriction) (NK2-receptor; [7]) | ED50 AUC1-180 min oral, NK2 (colonic motility) (NK2-receptor; [7]) | ED50 AUC1-180 min oral, NK2 (late hypotension) (NK2-receptor; [7]) | oral activity on the NK2, in words (NK2-receptor; oral administration) | pA2 data for NK1 (human NK1-receptor [4]) | ED50 iv after 1 min (cumulative), NK1 (early hypotension) (NK1-receptor) | ED50 AUC1-180 min oral, NK1 (early hypotension) (NK1-receptor; oral administration) | pA2 data for NK3 (human NK3 receptor [3]) | pKi, binding potency to NK1-receptors (human NK1-receptor [5]) | pKi, binding potency to NK3-receptors (human NK3 receptor [6]) | pKi, binding potency to NK2-receptors (human NK2-receptor [2]) | Structure (SMILES) | ED50 (NK3-receptor) |
| --- | --- | --- | --- | --- | --- | --- | --- | --- | --- | --- | --- | --- | --- | --- | --- | --- | --- | --- | --- |
| 0.501 nM | 0.398 nM | 31.6 nM |  |  |  |  |  |  |  |  |  |  |  |  |  |  |  | CNC(=O)C1(N2CCCCC2)CCN(CC[C@H](CN(C)C(=O)c2ccccc2)c2ccc(Cl)c(Cl)c2)CC1 [compound 2] | 1.98 mg/kg |
|  |  |  | 8.6 | 0.731 µmol/kg | 0.294 µmol/kg | 1.113 µmol/kg | >3.2 µmol/kg | >3.2 µmol/kg | >3.2 µmol/kg | active orally on the NK2 | 7.1 | >1.462 µmol/kg | >3.2 µmol/kg | 8.4 | 7.4 |  |  | CN(C)C(=O)C1(N2CCCCC2)CCN(CC[C@H](CN(C)C(=O)c2ccc(F)c(Cl)c2)c2ccc(Cl)c(Cl)c2)CC1 [compound 8] |  |
|  |  |  | 8.3 | 0.38 µmol/kg | 0.132 µmol/kg | 0.34 µmol/kg |  |  |  |  |  | >1.462 µmol/kg |  | 7.9 |  | 7.8 | 9.0 | CN(C)C(=O)C1(N2CCCCC2)CCN(CC[C@H](CN(C)C(=O)c2ccc(F)c(F)c2F)c2ccc(Cl)c(Cl)c2)CC1 [compound 16] |  |
|  |  |  | 8.6 | 0.058 µmol/kg | 0.053 µmol/kg | 0.108 µmol/kg |  |  |  |  | 8.0 | >1.462 µmol/kg |  | 8.0 | 7.6 | 8.4 |  | CN(C)C(=O)C1(N2CCCCC2)CCN(CC[C@H](CN(C)C(=O)c2cc(F)cc(F)c2)c2ccc(Cl)c(Cl)c2)CC1 [compound 9] |  |
